Assay results published in ChEMBL document CHEMBL1151494, “Synthesis of new building blocks for peptide nucleic acids containing monomers with variations in the backbone” (Bioorg Med Chem Lett, 1997).
Calls of active or inactive are those of the source. The rule behind the calls is not given here.

Experiments:
[1] = The stability against nucleases; Active
[2] = test system: Proteinase K (Tritirachium album); assay: The stability against proteinase K; Active

Stability [1] | Stability [2] | SMILES
Active | Active | Cc1cn([C@@H]2C[C@@H](C(=O)NCC(=O)O)N(C(=O)CNC(=O)[C@@H]3C[C@@H](n4cc(C)c(=O)[nH]c4=O)CN3C(=O)CNC(=O)[C@@H]3C[C@@H](n4cc(C)c(=O)[nH]c4=O)CN3C(=O)CNC(=O)[C@@H]3C[C@@H](n4cc(C)c(=O)[nH]c4=O)CN3C(=O)CNC(=O)[C@@H]3C[C@@H](n4cc(C)c(=O)[nH]c4=O)CN3C(=O)CNC(=O)[C@@H]3C[C@@H](n4cc(C)c(=O)[nH]c4=O)CN3C(=O)CNC(=O)[C@@H]3C[C@@H](n4cc(C)c(=O)[nH]c4=O)CN3C(=O)CNC(=O)[C@@H]3C[C@@H](n4cc(C)c(=O)[nH]c4=O)CN3C(=O)[C@@H](N)CCCCN)C2)c(=O)[nH]c1=O
Active | Active | Cc1cn(CC(=O)N2C[C@@H](N)C[C@H]2C(=O)NC2C[C@@H](C(=O)N[C@H]3C[C@@H](C(=O)NC4C[C@@H](C(=O)N[C@H]5C[C@@H](C(=O)NC6C[C@@H](C(=O)N[C@H]7C[C@@H](C(=O)NC8C[C@@H](C(=O)N[C@@H](C)C(=O)O)N(C(=O)Cn9cc(C)c(=O)[nH]c9=O)C8)N(C(=O)Cn8cc(C)c(=O)[nH]c8=O)C7)N(C(=O)Cn7cc(C)c(=O)[nH]c7=O)C6)N(C(=O)Cn6cc(C)c(=O)[nH]c6=O)C5)N(C(=O)Cn5cc(C)c(=O)[nH]c5=O)C4)N(C(=O)Cn4cc(C)c(=O)[nH]c4=O)C3)N(C(=O)Cn3cc(C)c(=O)[nH]c3=O)C2)c(=O)[nH]c1=O (stereo partly drawn)
Active | Active | Cc1cn(CC(=O)N2C[C@H](N)C[C@H]2C(=O)NC2C[C@@H](C(=O)N[C@@H]3C[C@@H](C(=O)NC4C[C@@H](C(=O)N[C@@H]5C[C@@H](C(=O)NC6C[C@@H](C(=O)N[C@@H]7C[C@@H](C(=O)NC8C[C@@H](C(=O)N[C@@H](C)C(=O)O)N(C(=O)Cn9cc(C)c(=O)[nH]c9=O)C8)N(C(=O)Cn8cc(C)c(=O)[nH]c8=O)C7)N(C(=O)Cn7cc(C)c(=O)[nH]c7=O)C6)N(C(=O)Cn6cc(C)c(=O)[nH]c6=O)C5)N(C(=O)Cn5cc(C)c(=O)[nH]c5=O)C4)N(C(=O)Cn4cc(C)c(=O)[nH]c4=O)C3)N(C(=O)Cn3cc(C)c(=O)[nH]c3=O)C2)c(=O)[nH]c1=O (stereo partly drawn)
Active | Active | Cc1cn([C@H]2C[C@@H](C(=O)NCC(=O)O)N(C(=O)CNC(=O)[C@@H]3C[C@H](n4cc(C)c(=O)[nH]c4=O)CN3C(=O)CNC(=O)[C@@H]3C[C@H](n4cc(C)c(=O)[nH]c4=O)CN3C(=O)CNC(=O)[C@@H]3C[C@H](n4cc(C)c(=O)[nH]c4=O)CN3C(=O)CNC(=O)[C@@H]3C[C@H](n4cc(C)c(=O)[nH]c4=O)CN3C(=O)CNC(=O)[C@@H]3C[C@H](n4cc(C)c(=O)[nH]c4=O)CN3C(=O)CNC(=O)[C@@H]3C[C@H](n4cc(C)c(=O)[nH]c4=O)CN3C(=O)CNC(=O)[C@@H]3C[C@H](n4cc(C)c(=O)[nH]c4=O)CN3C(=O)[C@@H](N)CCCCN)C2)c(=O)[nH]c1=O
